This data set can be described thus: Stated properties of the phosphate salt form (no method described). The class given is physicochemical. Particulars: comparator not stated in that sentence, no data given.

The structures appear in SMILES notation.

Regarding `CSC[C@H]1CN(Cc2c[nH]c3c(N)ncnc23)C[C@@H]1O` [(3R,4S)-1-((4-amino-5H-pyrrolo[3,2-d]pyrimidin-7-yl)methyl)-4-(methylthiomethyl)pyrrolidin-3-ol phosphate], the solubility result is on record as “improved” and the stability entry was “improved”.

Values taken from patent publication US10227351B2, “Salt and polymorphic forms of (3R,4S)-L-((4-amino-5H-pyrrolo[3,2,-D]pyrimidin-7-yl)methyl)-4(methylthiomethyl)pyrodin-3-ol(MTDIA)” (VICTORIA LINK LIMITED, priority 2012, dated 2019).
